Measured values as given in patent US8729095B2, “3-(biaryloxy)propionic acid derivatives for prevention and/or treatment of thromboembolic diseases” (Daiichi Sankyo Company, Limited, priority 2009, dated 2014).

What was measured:
[1] = test system: platelet aggregation induced by ADP in human platelet-rich plasma (PRP); assay: Human platelet aggregation inhibitory activity (ADP-induced, platelet-rich plasma); format: cell-based; settings: 8 min, ADP final concentration 20 μM, maximum aggregation rate, measured for 8 minutes
Description: A blood collecting syringe containing 1/10 volume of a 3.8% sodium citrate solution was used to collect blood from radial vein of a healthy person. The collected blood was centrifuged at 180×g at room temperature for 10 minutes to separate the supernatant (platelet-rich plasma; PRP). After PRP was separately collected, the remaining blood was centrifuged at 1,600×g for 10 minutes to separately collect platelet-poor plasma (PPP) of the upper layer. PRP was left at rest at 16° C. for 30 minutes, and subsequently used for measurement.
200 μL of the separately collected PRP was dispensed into a cuvette for the aggregation test, and 1 μL of dimethylsulfoxide (control) or a test compound solution diluted with dimethylsulfoxide was added, followed by incubation at 37° C. for 2 minutes. Subsequently, 2 μL of 2 mM ADP was added (final concentration 20 μM) to induce platelet aggregation.
Platelet aggregation was measured for 8 minutes using an aggregometer (MCM HEMA TRACER 313M; MC MEDICAL, INC.). With the light transmittance rate of PPP being set as an aggregation value of 100%, the maximum aggregation rate was determined for each concentration of the test compounds to calculate IC50 values.

[2] = test system: platelet aggregation induced by ADP in rat platelet-rich plasma (PRP); assay: Platelet aggregation inhibitory activity during oral administration in a rat (ex vivo, ADP-induced); settings: male Wistar rats, 1 mg/10 ml/kg orally, blood collected 4 hours after administration, ADP final concentration 3 μM, vs. control PRP (solvent only), read-out: Inhibition Rates (%)
Description: 1 mg/10 ml/kg of the test compound was orally administered by gavage to male rats (Slc: Wistar, age 8 to 9 weeks) that had been fasted overnight. 4 hours after administration, a syringe containing 1/10 volume of a 3.13% sodium citrate solution was used to collect blood from the abdominal aorta of a rat under anesthesia. From the collected blood, platelet-rich plasma (PRP) and platelet-poor plasma (PPP) were prepared according to the method described in the method for measuring human platelet aggregation inhibitory activity. PRP was left at rest at 16° C. for 30 minutes, and subsequently used for measurement.
200 μL of the separately collected PRP was dispensed into a cuvette for the aggregation test, followed by incubation at 37° C. for 2 minutes, and subsequently 2 μL of 0.3 mM ADP was added (final concentration 3 μM) to induce platelet aggregation.
Platelet aggregation was measured for 8 minutes using an aggregometer (MCM HEMA TRACER 313M; MC MEDICAL, INC.). With the light transmittance rate of PPP being set as an aggregation value of 100%, the maximum aggregation rate of PRP was determined, and compared with the maximum aggregation rate of control PRP (rat administered only with a solvent) to calculate inhibition rates.

Compound | IC50 [1] | inhibition at 1 mg/kg [2]
Cc1cc(-c2cc(F)ccc2O[C@H](C)CC(=O)O)ccc1C(=O)N1CCC(N2C(=O)C(C)(C)Oc3ncc(Cl)cc32)CC1 [Example 17, (3R)-3-[(4′-{[4-(7-Chloro-3,3-dimethyl-2-oxo-2,3-dihydro-1H-pyrido[2,3-b][1,4]oxazin-1-yl)piperidin-1-yl]carbonyl}-5-fluoro-3′-methylbiphenyl-2-yl)oxy]butanoic acid] | 9.8 µM | 52%
C[C@H](CC(=O)O)Oc1ccccc1-c1cnc(C(=O)N2CCC(N3C(=O)C(C)(C)Cc4ncc(Cl)cc43)CC2)c(F)c1 [Example 38, (3R)-3-[2-(6-{[4-(7-Chloro-3,3-dimethyl-2-oxo-3,4-dihydro-1,5-naphthyridin-1(2H)-yl)piperidin-1-yl]carbonyl}-5-fluoropyridin-3-yl)phenoxy]butanoic acid] | 2 µM | 52%
C[C@@H](COc1ccccc1-c1cnc(C(=O)N2CCC(N3C(=O)C(C)(C)Cc4ncc(Cl)cc43)CC2)c(F)c1)C(=O)O [Example 46, (2S)-3-[2-(6-{[4-(7-Chloro-3,3-dimethyl-2-oxo-3,4-dihydro-1,5-naphthyridin-1(2H)-yl)piperidin-1-yl]carbonyl}-5-fluoropyridin-3-yl)phenoxy]-2-methylpropanoic acid] | 1.8 µM | 31%
Cc1ccc(-c2ccc(C(=O)N3CCC(N4C(=O)C(C)(C)Oc5ncc(Cl)cc54)CC3)c(F)c2)c(O[C@H](C)CC(=O)O)c1 [Example 55, (3R)-3-[(4′-{[4-(7-Chloro-3,3-dimethyl-2-oxo-2,3-dihydro-1H-pyrido[2,3-b][1,4]oxazin-1-yl)piperidin-1-yl]carbonyl}-3′-fluoro-4-methylbiphenyl-2-yl)oxy]butanoic acid] | 8.4 µM | 68%
Cc1cc(-c2ccccc2O[C@H](C)CC(=O)O)ccc1C(=O)N1CCC(N2C(=O)C(C)(C)Cc3ncc(Cl)cc32)CC1 [Example 36, (3R)-3-[(4′-{[4-(7-Chloro-3,3-dimethyl-2-oxo-3,4-dihydro-1,5-naphthyridin-1(2H)-yl)piperidin-1-yl]carbonyl}-3′-methylbiphenyl-2-yl)oxy]butanoic acid] | 5.2 µM | 47%
CC[C@@H](COc1ccccc1-c1ccc(C(=O)N2CCC(N3C(=O)C(C)(C)Oc4ncc(Cl)cc43)CC2)c(F)c1)C(=O)O [Example 10, (2S)-2-{[(4′-{[4-(7-Chloro-3,3-dimethyl-2-oxo-2,3-dihydro-1H-pyrido[2,3-b][1,4]oxazin-1-yl)piperidin-1-yl]carbonyl}-3′-fluorobiphenyl-2-yl)oxy]methyl}butanoic acid] | 8.4 µM | 47%
C[C@H](CC(=O)O)Oc1ccc(F)cc1-c1ccc(C(=O)N2CCC(N3C(=O)C(C)(C)Cc4ncc(Cl)cc43)CC2)c(F)c1 [Example 14, (3R)-3-[(4′-{[4-(7-Chloro-3,3-dimethyl-2-oxo-3,4-dihydro-1,5-naphthyridin-1(2H)-yl)piperidin-1-yl]carbonyl}-3′,5-difluorobiphenyl-2-yl)oxy]butanoic acid] | 3.4 µM | 79%
C[C@H](CC(=O)O)Oc1ccccc1-c1cc(F)c(C(=O)N2CCC(N3C(=O)C(C)(C)Oc4ncc(Cl)cc43)CC2)c(F)c1 [Example 51, (3R)-3-[(4′-{[4-(7-Chloro-3,3-dimethyl-2-oxo-2,3-dihydro-1H-pyrido[2,3-b][1,4]oxazin-1-yl)piperidin-1-yl]carbonyl}-3′,5′-difluorobiphenyl-2-yl)oxy]butanoic acid] | 7.7 µM | 75%
C[C@H](CC(=O)O)Oc1ccc(F)cc1-c1ccc(C(=O)N2CCC(N3C(=O)C(C)(C)Oc4ncc(Cl)cc43)CC2)c(F)c1 [Example 13, (3R)-3-[(4′-{[4-(7-Chloro-3,3-dimethyl-2-oxo-2,3-dihydro-1H-pyrido[2,3-b][1,4]oxazin-1-yl)piperidin-1-yl]carbonyl}-3′,5-difluorobiphenyl-2-yl)oxy]butanoic acid] | 4.1 µM | 63%
C[C@@H]1Oc2ncc(Cl)cc2N(C2CCN(C(=O)c3ccc(-c4ccccc4OCC(C)(C)C(=O)O)cc3F)CC2)C1=O [Example 2, 3-{[4′-({4-[(3S)-7-Chloro-3-methyl-2-oxo-2,3-dihydro-1H-pyrido[2,3-b][1,4]oxazin-1-yl]piperidin-1-yl}carbonyl)-3′-fluorobiphenyl-2-yl]oxy}-2,2-dimethylpropanoic acid] | 3.5 µM | 66%
Cc1cc(-c2ccccc2O[C@H](C)CC(=O)O)ccc1C(=O)N1CCC(N2C(=O)C(C)(C)Oc3ncc(Cl)cc32)CC1 [Example 16, (3R)-3-[(4′-{[4-(7-Chloro-3,3-dimethyl-2-oxo-2,3-dihydro-1H-pyrido[2,3-b][1,4]oxazin-1-yl)piperidin-1-yl]carbonyl}-3′-methylbiphenyl-2-yl)oxy]butanoic acid] | 6.5 µM | 40%
C[C@H](CC(=O)O)Oc1ccccc1-c1ccc(C(=O)N2CCC(N3C(=O)C(C)(C)Oc4ncc(Cl)cc43)CC2)c(F)c1 [Example 6, (3R)-3-[(4′-{[4-(7-Chloro-3,3-dimethyl-2-oxo-2,3-dihydro-1H-pyrido[2,3-b][1,4]oxazin-1-yl)piperidin-1-yl]carbonyl}-3′-fluorobiphenyl-2-yl)oxy]butanoic acid] | 2.4 µM | 54%
C[C@H](CC(=O)O)Oc1ccc(F)cc1-c1cnc(C(=O)N2CCC(N3C(=O)C(C)(C)Oc4ncc(Cl)cc43)CC2)c(F)c1 [Example 42, (3R)-3-[2-(6-{[4-(7-Chloro-3,3-dimethyl-2-oxo-2,3-dihydro-1H-pyrido[2,3-b][1,4]oxazin-1-yl)piperidin-1-yl]carbonyl}-5-fluoropyridin-3-yl)-4-fluorophenoxy]butanoic acid] | 1.4 µM | 54%
